According to patent publication US20020106705A1, “Detection method for monitoring beta tubulin isotype specific modification” (Tularik Inc., priority 1999, published 2002):

Experiments:
β-tubulin isotypes = conditions: cited from earlier work
[1] = system: β-tubulin in white blood cells; assay: Western blot of white blood cells from a human patient after compound 1 infusion; type: in vivo
Description: (§1) White blood cells (“WBC”) were isolated from blood samples (5 ml) taken immediately after a 3 h infusion of compound 1 sodium salt from rats or a human patient treated at 20 mg/kg and 220 mg/m2, respectively, as follows. The samples were mixed with 5 ml of PBS and layered on a Ficoll cushion (10 ml, “Lymphoprep” (density is ˜1.077 and osmolality 280 mOsm, Gibco/BRL). After centrifugation (1000 rpm, 30 min (Sorvall RC3C centrifuge)) at room temperature WBC were isolated from the cushion and the sample was diluted 1:5 with PBS. After centrifugation (2000 rpm for 10 min) the liquid was discarded and the cell pellet was resuspended in 1 ml of PBS. The solution was transferred to an Eppendorf tube and the cells were collected by centrifugation (3000 rpm, 5 min). After the supernatant was discarded the cell pellet was stored at −80° C. or processed as follows. Rat WBC-pellet was resuspended in 15 μl of IEF-buffer and mixed with 15 μl of 2× SDS sample buffer. The human sample was mixed immediately with an equal volume (10 μl) of SDS sample buffer. Protein samples ([…], human; 2 μl, rat) were analyzed by SDS-PAGE and subjected to western blot analyzes as outlined above.
As a standard 10 μg of purified brain tubulin was mixed with […] of BRB80 buffer and incubated with 10 μl of ^3H-compound 1 (10 μCi) in a 500 μl reaction at […] for 2 h. […]

cellular tubulin = conditions: cited from earlier work
[2] = system: β-tubulin in white blood cells; assay: Western blot of white blood cells from rats after compound 1 infusion; type: in vivo, rat; conditions: 3 h infusion of compound 1 sodium salt, 20 mg/kg
Description: as §1

**Q.** Which results are given for `COc1ccc(NS(=O)(=O)c2c(F)c(F)c(F)c(F)c2F)cc1F` [compound 1, 2-fluoro-1-methoxy-4-pentafluorophenylsulfonamidobenzene]?
**A.** modification of other cellular proteins (β-tubulin isotypes): no other cellular proteins are modified; covalent modification of β-tubulin isotypes (β-tubulin isotypes; five known β-tubulin isotypes, β1, β2, β4 have Cys239, β3 and β5 have serine): binding is restricted to those β-tubulin isotypes that have a cysteine residue at amino acid position 239 in β-tubulin; amount of loaded tubulin modified by compound 1 ([1]; human WBC sample, compared with 3H-compound 1-β-tubulin standard curve): ~7.5 fmol; β-tubulin modification in white blood cells (western blot with 2C1H7) ([1]; human patient, 3 h infusion of compound 1 sodium salt, 220 mg/m2): a protein consistent of the size of β-tubulin was visible; binding to cellular tubulin (cellular tubulin): time- and concentration-dependent; β-tubulin modification in white blood cells (western blot with 2C1H7) [2]: a protein consistent of the size of β-tubulin was visible
